# Experimental data from PMC3150642 (Journal of medicinal chemistry, 2011).
# Assays:
# DPPH Antioxidant Test = details: 5 μM test reagent, 500 μM DPPH
# [1] = biological target: T1, 12-LOX in primary human islets (Homo sapiens, UniProt P18054); experiment: Inhibition of 12-HETE Production in Human Donor Islets; format: cell-based; details: 10 μM, islets of two type 2 diabetic donors, AA + A23187
# T1 sequence (P18054 1-663): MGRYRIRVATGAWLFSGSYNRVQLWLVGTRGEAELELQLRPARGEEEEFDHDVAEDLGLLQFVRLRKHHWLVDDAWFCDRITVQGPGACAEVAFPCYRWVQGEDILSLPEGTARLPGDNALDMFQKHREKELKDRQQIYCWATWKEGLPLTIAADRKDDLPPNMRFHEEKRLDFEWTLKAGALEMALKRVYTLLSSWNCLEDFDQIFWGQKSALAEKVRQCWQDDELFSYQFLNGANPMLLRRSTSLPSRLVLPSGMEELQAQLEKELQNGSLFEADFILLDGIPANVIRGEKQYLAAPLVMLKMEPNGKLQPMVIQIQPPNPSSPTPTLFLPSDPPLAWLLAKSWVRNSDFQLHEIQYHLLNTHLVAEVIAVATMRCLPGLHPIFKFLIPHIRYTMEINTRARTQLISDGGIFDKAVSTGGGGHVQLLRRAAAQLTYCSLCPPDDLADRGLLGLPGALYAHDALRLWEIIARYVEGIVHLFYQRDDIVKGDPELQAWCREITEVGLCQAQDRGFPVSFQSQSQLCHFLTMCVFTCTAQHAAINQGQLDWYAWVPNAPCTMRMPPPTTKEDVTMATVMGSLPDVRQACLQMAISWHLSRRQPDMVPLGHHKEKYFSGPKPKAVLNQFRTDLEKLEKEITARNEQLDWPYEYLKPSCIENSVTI
# 12-LOX in platelets = biological target: T2, 12-LOX in platelets (Homo sapiens, UniProt P18054); details: 100 μM inhibitor, three separate experiments
# T2 sequence (P18054 1-663): T1 sequence (P18054 1-663)
# [2] = biological target: T3, Human platelet 12-lipoxygenase (12-LOX) (Homo sapiens, UniProt P18054); experiment: Lipoxygenase UV-Vis-based manual assay, 12-LOX; format: biochemical; details: Triton X-100 from 0.005% to 0.02%
# T3 sequence (P18054 1-663): T1 sequence (P18054 1-663)
smiles,measurement,setting,value
"CCC(=O)NC(c1cccs1)c1cc([N+](=O)[O-])c2cccnc2c1O (centres unmarked) [Compound 1, N-((8-hydroxy-5-nitroquinolin-7-yl)(thiophen-2-yl)methyl)propionamide]",reduction of DPPH,DPPH Antioxidant Test,no reduction of DPPH was observed
same,inhibition of stimulated 12-HETE production,[1],74%
same,inhibition of PAR1-AP-mediated 12-HETE production,12-LOX in platelets,significant inhibition
"CC(=O)NC(c1cccs1)c1cc(Cl)c2cccnc2c1O (centres unmarked) [Compound 3, N-((5-chloro-8-hydroxyquinolin-7-yl)(thiophen-2-yl)methyl)acetamide]",change in IC50 with increasing Triton X-100 (aggregation test),[2],negligible changes in the IC50
"CC(Cc1ccc(O)c(O)c1)C(C)Cc1ccc(O)c(O)c1 (centres unmarked) [NDGA, Nordihydroguaiaretic acid, reference compound]",reduction of DPPH,DPPH Antioxidant Test,Stoichiometric reduction of DPPH
